Results reported in US5530126A, “Process for the preparation of substituted 6-(pyrazol-3yl)-1,4-benzoxazin-3-ones” (Monsanto Company, priority 1994, dated 1996).

Assays:
Assay type in all cases: in vivo
[1] = tested on: Annual bluegrass; assay: Pre-emergence herbicide test; conditions: read-out: % plant inhibition (Anbg); for inhibition at 1120 g/ha: 1.12 kg/ha; for inhibition at 11210 g/ha: 11.21 kg/ha
Summary of the method: (§1)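 Known dose of active, dissolved or suspended in acetone or water, delivered onto seed bed prior to emergence and buried under untreated topsoil. Greenhouse incubation with watering from below. Percentage inhibition rated 10-14 days after seeding.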

[2] = tested on: Barnyardgrass; assay: Pre-emergence herbicide test; conditions: Echinochloa crus-galli, read-out: % plant inhibition (Bygr); for inhibition at 1120 g/ha: 1.12 kg/ha; for inhibition at 11210 g/ha: 11.21 kg/ha
Summary of the method: as §1

[3] = tested on: Cocklebur; assay: Pre-emergence herbicide test; conditions: Xanthium strumarium, read-out: % plant inhibition (Cobu); for inhibition at 1120 g/ha: 1.12 kg/ha; for inhibition at 11210 g/ha: 11.21 kg/ha
Summary of the method: as §1

[4] = tested on: Downy Brome; assay: Pre-emergence herbicide test; conditions: Bromus tectorum, read-out: % plant inhibition (Dobr); for inhibition at 1120 g/ha: 1.12 kg/ha; for inhibition at 11210 g/ha: 11.21 kg/ha
Summary of the method: as §1

[5] = tested on: Indian Mustard; assay: Pre-emergence herbicide test; conditions: Brassica juncea, read-out: % plant inhibition (Inmu); for inhibition at 1120 g/ha: 1.12 kg/ha; for inhibition at 11210 g/ha: 11.21 kg/ha
Summary of the method: as §1

[6] = tested on: Morningglory; assay: Pre-emergence herbicide test; conditions: Ipomoea, read-out: % plant inhibition (Mogl); for inhibition at 1120 g/ha: 1.12 kg/ha; for inhibition at 11210 g/ha: 11.21 kg/ha
Summary of the method: as §1

[7] = tested on: Seedling johnsongrass; assay: Pre-emergence herbicide test; conditions: Sorghum halepense, read-out: % plant inhibition (Sejg); for inhibition at 1120 g/ha: 1.12 kg/ha; for inhibition at 11210 g/ha: 11.21 kg/ha
Summary of the method: as §1

[8] = tested on: Velvetleaf; assay: Pre-emergence herbicide test; conditions: Abutilon theophrasti, read-out: % plant inhibition (Vele); for inhibition at 1120 g/ha: 1.12 kg/ha; for inhibition at 11210 g/ha: 11.21 kg/ha
Summary of the method: as §1

[9] = tested on: Wild buckwheat; assay: Pre-emergence herbicide test; conditions: Fallopia convolvulus, read-out: % plant inhibition (Wibw); for inhibition at 1120 g/ha: 1.12 kg/ha; for inhibition at 11210 g/ha: 11.21 kg/ha
Summary of the method: as §1

[10] = tested on: Yellow nutsedge; assay: Pre-emergence herbicide test; conditions: Cyperus, read-out: % plant inhibition (Yens); for inhibition at 1120 g/ha: 1.12 kg/ha; for inhibition at 11210 g/ha: 11.21 kg/ha
Summary of the method: as §1

[11] = tested on: Annual bluegrass; assay: Post-emergence herbicide test; conditions: read-out: % plant inhibition (Anbg); for inhibition at 1120 g/ha: 1.12 kg/ha; for inhibition at 11210 g/ha: 11.21 kg/ha
Summary of the method: (§2)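 Seeds or propagules are pressed into compacted topsoil, covered and sub-irrigated in the greenhouse. At two to three weeks the plants are atomizer-sprayed (170.3 kPa, 1870 L/Ha, ~0.4% emulsifier by volume). Percent inhibition relative to control is observed about 10–14 days later.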

[12] = tested on: Barnyardgrass; assay: Post-emergence herbicide test; conditions: Echinochloa crus-galli, read-out: % plant inhibition (Bygr); for inhibition at 1120 g/ha: 1.12 kg/ha; for inhibition at 11210 g/ha: 11.21 kg/ha
Summary of the method: as §2

[13] = tested on: Cocklebur; assay: Post-emergence herbicide test; conditions: Xanthium strumarium, read-out: % plant inhibition (Cobu); for inhibition at 1120 g/ha: 1.12 kg/ha; for inhibition at 11210 g/ha: 11.21 kg/ha
Summary of the method: as §2

[14] = tested on: Downy Brome; assay: Post-emergence herbicide test; conditions: Bromus tectorum, read-out: % plant inhibition (Dobr); for inhibition at 1120 g/ha: 1.12 kg/ha; for inhibition at 11210 g/ha: 11.21 kg/ha
Summary of the method: as §2

[15] = tested on: Indian Mustard; assay: Post-emergence herbicide test; conditions: Brassica juncea, read-out: % plant inhibition (Inmu); for inhibition at 1120 g/ha: 1.12 kg/ha; for inhibition at 11210 g/ha: 11.21 kg/ha
Summary of the method: as §2

[16] = tested on: Morningglory; assay: Post-emergence herbicide test; conditions: Ipomoea, read-out: % plant inhibition (Mogl); for inhibition at 1120 g/ha: 1.12 kg/ha; for inhibition at 11210 g/ha: 11.21 kg/ha
Summary of the method: as §2

[17] = tested on: Seedling johnsongrass; assay: Post-emergence herbicide test; conditions: Sorghum halepense, read-out: % plant inhibition (Sejg); for inhibition at 1120 g/ha: 1.12 kg/ha; for inhibition at 11210 g/ha: 11.21 kg/ha
Summary of the method: as §2

[18] = tested on: Velvetleaf; assay: Post-emergence herbicide test; conditions: Abutilon theophrasti, read-out: % plant inhibition (Vele); for inhibition at 1120 g/ha: 1.12 kg/ha; for inhibition at 11210 g/ha: 11.21 kg/ha
Summary of the method: as §2

[19] = tested on: Wild buckwheat; assay: Post-emergence herbicide test; conditions: Fallopia convolvulus, read-out: % plant inhibition (Wibw); for inhibition at 1120 g/ha: 1.12 kg/ha; for inhibition at 11210 g/ha: 11.21 kg/ha
Summary of the method: as §2

[20] = tested on: Yellow nutsedge; assay: Post-emergence herbicide test; conditions: Cyperus, read-out: % plant inhibition (Yens); for inhibition at 1120 g/ha: 1.12 kg/ha; for inhibition at 11210 g/ha: 11.21 kg/ha
Summary of the method: as §2

| SMILES | inhibition at 1120 g/ha [1] [%] | inhibition at 1120 g/ha [2] [%] | inhibition at 1120 g/ha [3] [%] | inhibition at 1120 g/ha [4] [%] | inhibition at 1120 g/ha [5] [%] | inhibition at 1120 g/ha [6] [%] | inhibition at 1120 g/ha [7] [%] | inhibition at 1120 g/ha [8] [%] | inhibition at 1120 g/ha [9] [%] | inhibition at 1120 g/ha [10] [%] | inhibition at 1120 g/ha [11] [%] | inhibition at 1120 g/ha [12] [%] | inhibition at 1120 g/ha [13] [%] | inhibition at 1120 g/ha [14] [%] | inhibition at 1120 g/ha [15] [%] | inhibition at 1120 g/ha [16] [%] | inhibition at 1120 g/ha [17] [%] | inhibition at 1120 g/ha [18] [%] | inhibition at 1120 g/ha [19] [%] | inhibition at 1120 g/ha [20] [%] | further results |
| --- | --- | --- | --- | --- | --- | --- | --- | --- | --- | --- | --- | --- | --- | --- | --- | --- | --- | --- | --- | --- | --- |
| Cn1nc(-c2cc(O)c(Br)cc2F)c(Cl)c1C(F)(F)F [Compound 95] | 30 | 50 | 20 | 20 | 80 | 40 | 50 | 90 | 100 | 20 | 60 | 80 | 100 | 40 | 70 | 80 | 50 | 100 | 100 | 10 | – |
| Cn1nc(-c2ccc(Cl)cc2)c(Cl)c1C(F)(F)Cl [Compound 83] | – | – | – | – | – | – | – | – | – | – | – | – | – | – | – | – | – | – | – | – | inhibition at 11210 g/ha [1]: 40%; inhibition at 11210 g/ha [2]: 60%; inhibition at 11210 g/ha [3]: 40%; inhibition at 11210 g/ha [4]: 90%; inhibition at 11210 g/ha [5]: 60%; inhibition at 11210 g/ha [6]: 30%; inhibition at 11210 g/ha [7]: 100%; inhibition at 11210 g/ha [8]: 90%; inhibition at 11210 g/ha [9]: 90%; inhibition at 11210 g/ha [10]: 20%; inhibition at 11210 g/ha [11]: 0%; inhibition at 11210 g/ha [12]: 40%; inhibition at 11210 g/ha [13]: 70%; inhibition at 11210 g/ha [14]: 40%; inhibition at 11210 g/ha [15]: 90%; inhibition at 11210 g/ha [16]: 80%; inhibition at 11210 g/ha [17]: 60%; inhibition at 11210 g/ha [18]: 100%; inhibition at 11210 g/ha [19]: 100%; inhibition at 11210 g/ha [20]: 20% |
| CC(C)CCOC(=O)COc1cc(-c2nn(C)c(C(F)(F)F)c2Cl)c(F)cc1Cl [Compound 288] | 0 | 0 | 30 | 0 | 20 | 100 | 0 | 100 | 90 | 0 | 0 | 50 | 100 | 0 | 90 | 100 | 20 | 100 | 100 | 10 | – |
| COc1cc(-c2c(Cl)c(C(F)(F)F)nn2C)c(F)cc1Cl [Compound 74] | 10 | 20 | 0 | 20 | 90 | 50 | 60 | 90 | 100 | 0 | 0 | 10 | 20 | 10 | 40 | 20 | 10 | 40 | 90 | 10 | – |
| CC(C)CCOC(=O)c1cc(-c2nn(C)c(C(F)(F)F)c2Cl)c(F)cc1Cl [Compound 141] | 20 | 20 | 70 | 70 | 80 | 80 | 50 | 70 | 90 | 0 | 90 | 70 | 90 | 100 | 80 | 100 | 90 | 100 | 100 | 0 | – |
| Cn1nc(-c2cc(C(=O)OC3CCCCC3)c(Cl)cc2F)c(Cl)c1C(F)(F)F [Compound 134] | 50 | 10 | 30 | 70 | 60 | 20 | 40 | 70 | 90 | 0 | 100 | 100 | 100 | 100 | 100 | 100 | 100 | 100 | 100 | 20 | – |
| C#CCOc1cc(-c2nn(C)c(C(F)(F)Cl)c2Cl)c(F)cc1Cl [Compound 303] | – | – | – | – | – | – | – | – | – | – | – | – | – | – | – | – | – | – | – | – | inhibition at 11210 g/ha [1]: 100%; inhibition at 11210 g/ha [2]: 100%; inhibition at 11210 g/ha [3]: 100%; inhibition at 11210 g/ha [4]: 100%; inhibition at 11210 g/ha [5]: 100%; inhibition at 11210 g/ha [6]: 100%; inhibition at 11210 g/ha [7]: 100%; inhibition at 11210 g/ha [8]: 100%; inhibition at 11210 g/ha [9]: 100%; inhibition at 11210 g/ha [10]: 0%; inhibition at 11210 g/ha [11]: 100%; inhibition at 11210 g/ha [12]: 100%; inhibition at 11210 g/ha [13]: 100%; inhibition at 11210 g/ha [14]: 100%; inhibition at 11210 g/ha [15]: 100%; inhibition at 11210 g/ha [16]: 100%; inhibition at 11210 g/ha [17]: 100%; inhibition at 11210 g/ha [18]: 100%; inhibition at 11210 g/ha [19]: 100%; inhibition at 11210 g/ha [20]: 70% |
| CCOC(=O)C(C)Oc1cc(-c2nn(C)c(C(F)(F)F)c2Cl)c(F)cc1Br (centres unmarked) [Compound 97] | 80 | 50 | 90 | 80 | 90 | 40 | 50 | 100 | 100 | 20 | 70 | 100 | 100 | 90 | 100 | 90 | 60 | 100 | 100 | 50 | – |
| CCOC(=O)C(C)=Cc1cc(-c2nn(C)c(C(F)(F)F)c2Cl)c(F)cc1Cl [Compound 127] | 0 | 30 | 20 | 0 | 90 | 70 | 20 | 100 | 100 | 0 | 20 | 60 | 100 | 80 | 100 | 100 | 100 | 100 | 100 | 20 | – |
| Cc1cc(-c2nn(C)c(C(F)(F)F)c2Br)c(F)cc1Cl [Compound 125] | 100 | 100 | 30 | 90 | 100 | 90 | 100 | 100 | 100 | 0 | 20 | 0 | 40 | 0 | 30 | 30 | 0 | 100 | 100 | 0 | – |
